Data: US20050261365A1, “Transthyretin stabilization” (The Scripps Research Institute, priority 2004, published 2005)
Where “and” joins values, the source holds several entries; their conditions need not be identical. Equal values may be shown once.

Columns and labels:
TTR = target: T1, TTR (Homo sapiens, UniProt P02766); experiment: analytical ultracentrifugation of TTR quaternary structure under amyloidogenic conditions; conditions: 27 at 7.2 μM, TTR 3.6 μM, 72 h at pH 4.4, 37° C.; tetramer expected 55.0 kDa
T1 construct: made in house
Description: To ensure that these C1-arylated dibenzofurans inhibit TTR fibril formation by native state stabilization (i.e. tetramer stabilization), we studied the TTR quaternary structure by analytical ultracentrifugation after a preincubation period of 72 h under amyloidogenic conditions (pH 4.4, 37° C.). […] In the absence of 27, TTR aggregated into very high molecular weight oligomers that sedimented rapidly in the ultracentrifugation experiment (data not shown). […]
(§1) FIG. 8 is a plot of the absorbance at 280 nm versus distance from the center in the sedimentation velocity study on TTR ([…]) after being preincubated with 27 ([…]) and after another incubation period where the pH was dropped to 4.4 for 72 h, a time frame that results in maximal amyloid formation in the absence of inhibitor. […]
as §1, with “FIG. 9” for “FIG. 8”, “the equilibrium ultracentrifugation studies” for “the sedimentation velocity study”

[1] = precipitation of small molecules under acid-mediated amyloidogenic conditions in the absence of TTR; type: physicochemical; conditions: 3.6 μM, pH 4.4, 37° C., 72 h
Description: TTR amyloid inhibition efficacy was probed using a stagnant fibril formation assay described previously, wherein partial denaturation was triggered by acidification (pH 4.4, 37° C.) (Colon, W.; Kelly, J. W. Biochemistry 1992, 31, 8654-8660). Briefly, a test compound (7.2 or 3.6 μM) is incubated with TTR (3.6 μM) for 30 min in pH 7 buffer. Amyloidogenesis is then initiated by lowering to pH 4.4, where maximal fibril formation is observed with WT-TTR after 72 h (37° C.). […] From experience we know that excellent inhibitors allow <10% fibril formation at a small molecule concentration of 7.2 μM and <40% fibril formation at a concentration equal to that of WT-TTR (3.6 μM) (Hammarstrom, P.; et al. Science 2003, 299, 713-716; Klabunde, T.; et al. Nature Struct. Biol. 2000, 7, 312-321; Razavi, H.; et al. Angew Chem 2003, 42, 2758-2761; Miroy, G. J.; et al. Proc. Natl. Acad. Sci. USA 1996, 93, 15051-15056; Peterson, S. A.; et al. Proc. Natl. Acad. Sci. USA 1998, 95, 12956-12960; Baures, P. W.; et al. Bioorg. Med. Chem. 1998, 6, 1389-1401; Baures, P. W.; et al. Bioorg. Med. Chem. 1999, 7, 1339-1347; Petrassi, H. M.; et al. J. Am. Chem. Soc. 2000, 122, 2178-2192; McCammon, M. G.; et al. Structure 2002, 10, 851-863; Oza, V. B.; et al. J. Med. Chem. 2002, 45, 321-332; Saccheftini, J. C.; et al. Nature Rev. Drug Disc. 2002, 1, 267-275; Green, N. S.; et al. J. Am. Chem. Soc. 2003, 125, 13404-13414; Adamski-Werner, S. L.; et al. J. Med. Chem. 2004, 47, 355-374; Miller Sean, R.; et al. Lab. Inv. 2004, 84, 545-552). […] Therefore, when both the ligand and TTR are at equal concentrations, a population of TTR•I, TTR•I2 and unliganded TTR is observed, dictated by the dissociation constants. It is now established by other studies that inhibitor occupancy of only one of the two TTR binding sites is sufficient to stabilize the entire tetramer against amyloidogenesis (Wiseman, R. L.; et al. J. Am. Chem. Soc. 2005, in press). This is further supported by the observation herein that twenty-six of these dibenzofurans are excellent TTR amyloidogenesis inhibitors (<40% fibril formation) at a concentration equal to that of TTR (3.6 μM each, FIG. 3).

WT-TTR [2] = target: T2, WT-TTR (Homo sapiens, UniProt P02766); experiment: time course analysis of WT-TTR fibril formation inhibition; type: biochemical
T2 construct: made in house
Description: Time course analysis of WT-TTR fibril formation inhibition by compounds 25, 47, and 64. Compounds 25, 47, and 64 were dissolved in DMSO to provide 7.2 mM primary stock solutions (10× stocks), from which 5- and 10-fold DMSO dilutions yielded 1.44 mM (2×) and 0.72 mM (1×) secondary stock solutions, respectively. 495 μL of 0.4 mg/mL (7.2 μM) WT-TTR solution (10 mM sodium phosphate, 100 mM KCl, and 1 mM EDTA, pH 7.2), and 5 μL of either the 1.44 or 0.72 mM inhibitor secondary stock solutions were added to disposable UV cuvettes, vortexed briefly, then incubated for 30 min at 25° C. The pH was then adjusted to 4.4 with addition of 500 μL of acidic buffer (100 mM acetate, 100 mM KCl, 1 mM EDTA, pH 4.2), and the final 1 mL solutions were vortexed again and incubated in the dark at 37° C. without agitation. At 0, 4, 8, 12, 25, 49, 74, 100, 122, 145, and 169 h time points after acidification, the solutions were vortexed and the turbidity at 500 nm was measured. Control samples containing 5 μL of pure DMSO were prepared and analyzed as above for comparison. Small molecule and TTR control samples were prepared in groups of 10 to prevent disturbance of the cuvettes during incubation. Samples were discarded after their turbidities were measured.
FIG. 10 is a plot of the timecourse analysis of WT-TTR (3.6 μM) fibril formation mediated by partial acid denaturation in the absence (▴) and presence of 7.2 μM (⋄) and 3.6 μM (◯) inhibitors 25, 47, and 64, as measured by turbidity at 500 nm (see color scheme within Figure to differentiate inhibitors). It is hard to discern which compound is most efficacious in the black and white plot.

WT-TTR tetramer = target: T3, WT-TTR tetramer (Homo sapiens, UniProt P02766); experiment: time course analysis of WT-TTR tetramer dissociation by linked monomer unfolding in urea; type: biochemical; conditions: inhibitor 7.2 and 3.6 μM, TTR 3.6 μM, far-UV CD
T3 construct: made in house
Source text: The ability of these inhibitors to impose kinetic stability on tetrameric TTR is best evaluated by assessing the rate of TTR tetramer dissociation (Hammarstrom, P.; et al. Science 2003, 299, 713-716; Hammarstrom, P.; et al. Proc. Natl. Acad. Sci. USA 2002, 99, 16427-16432). Under acidic conditions tetramer dissociation leads to amyloidogenesis, whereas in the presence of chaotropes (6M urea), tetramer dissociation leads to monomer unfolding. The influence of inhibitors 25, 47 and 64, representing the three structural classes of dibenzofuran-based inhibitors, on the rates of tetramer dissociation under acid- and urea-mediated denaturing conditions was probed. […] The rate of TTR tetramer dissociation in 6M urea is easily monitored by linking the slow quaternary structural changes to rapid tertiary structural changes that are easily monitored by spectroscopic methods (Hammarstrom, P.; et al. Proc. Natl. Acad. Sci. USA 2002, 99, 16427-16432).
Time course analysis of WT-TTR tetramer dissociation inhibition by compounds 25, 47, and 64 evaluated by linked-monomer unfolding in urea. Compounds 25, 47, and 64 were dissolved in DMSO to provide 10 mM primary stock solutions, from which 10-fold EtOH dilutions yielded 1 mM secondary stock solutions. 200 μL of 1.0 mg/mL (18 μM) WT-TTR solution (50 mM sodium phosphate, 100 mM KCl, and 1 mM EDTA, pH 7.2), and either 7.2 or 3.6 μL (2× and 1×, respectively) of 1 mM inhibitor secondary stock solutions were added to 2 mL eppendorf tubes, vortexed briefly, and incubated for 15 min at 25° C. 100 μL of the TTR•inhibitor solutions were added to 900 μL of urea buffer (6.67 M urea, 50 mM sodium phosphate, 100 mM KCl, 1 mM EDTA, pH 7.2), and the final 1 mL solutions were vortexed again and incubated in the dark at 25° C. without agitation. At 0, 4, 11, 24, 49, 73, 97, 122, 146, and 170 h time points after mixing with urea, the circular dichroism spectra were measured between […], with scanning every 0.5 nm and averaging for 5 s. […] Control samples containing 7.2 μL of 10% DMSO in EtOH were prepared and analyzed as above for comparison. […] TTR tetramer dissociation is linked to the rapid (˜500,000× faster) monomer denaturation as measured through this β-sheet loss (Hammarstrom, P.; et al. Proc. Natl. Acad. Sci. USA 2002, 99, 16427-16432).
FIG. 11 is a plot of the timecourse analysis of WT-TTR (3.6 μM) tetramer dissociation (6.0 M urea) in the absence (▴) and presence of 7.2 μM (⋄) and 3.6 μM (◯) concentrations of inhibitors 25, 47, and 64 (see color scheme within Figure to differentiate inhibitors). Slow tetramer dissociation is not detectable by far-UV CD spectroscopy, but this process is linked to rapid (˜500,000× faster) monomer denaturation as monitored by loss of β-sheet content easily followed by circular dichroism spectroscopy. […]

[3] = target: T4, TTR in human blood plasma (Homo sapiens, UniProt P02766); experiment: plasma TTR binding selectivity, antibody capture method; conditions: inhibitor 10.8 μM, 24 h, 37° C.
T4 construct: from tissue; host or cells: human blood plasma
Description: Inhibitor binding selectivity to TTR in human blood plasma was assessed using a previously established antibody capture method (Purkey, H. E.; et al. Proc. Natl. Acad. Sci. USA 2001, 98, 5566-5571). In this evaluation, inhibitors (10.8 μM, ˜2-3× the natural concentration of TTR) are incubated in human blood plasma for 24 h at 37° C. Quenched sepharose resin is then added to the plasma to remove any small molecules that would bind to the resin as opposed to TTR. TTR and any TTR-bound small molecule is then immunocaptured using a polyclonal TTR antibody covalently attached to sepharose resin. After washing the resin (5×10 min washes), the antibody-TTR complex is dissociated at high pH and analyzed by RP-HPLC. The relative stoichiometry between TTR and inhibitor is then calculated from their HPLC peak areas using standard curves.
The procedures used for bacterial expression of TTR (Lai, Z.; et al. Biochemistry 1996, 35, 6470-6482), the stagnant fibril formation assay (Colon, W.; Kelly, J. W. Biochemistry 1992, 31, 8654-8660; Lai, Z.; et al. Biochemistry 1996, 35, 6470-6482), the blood plasma binding selectivity assay (Purkey, H. E.; et al. Proc. Natl. Acad. Sci. USA 2001, 98, 5566-5571), and analytical ultracentrifugation (Lashuel, H. A.; et al. Biochemistry 1998, 37, 17851-17864) have all been described in detail previously.

WT-TTR [4] = target: T2, WT-TTR; conditions: inhibitor 7.2 μM, WT-TTR 3.6 μM, pH 4.4, 72 h; cited from earlier work

binding selectivity to TTR in human blood plasma [3] | SMILES | hydrodynamic molecular weight of TTR by equilibrium analytical ultracentrifugation (TTR) | hydrodynamic molecular weight of TTR by sedimentation velocity (TTR) | precipitation in the absence of TTR [1] | order of fibrils formed at the end of the time course (WT-TTR [2]; after 169 hours, FIG. 10) | rate of TTR amyloidogenesis mediated by partial acidification relative to control (WT-TTR [2]; inhibitor 7.2 and 3.6 μM, WT-TTR 3.6 μM, pH 4.4, turbidity at 500 nm) | rate of TTR tetramer dissociation in 6M urea (WT-TTR tetramer) | decrease of the extent of WT-TTR amyloid formation (WT-TTR [4])
 | O=C(O)c1cccc2c1oc1c(C(=O)O)ccc(Nc3cccc(Cl)c3)c12 [Compound 27] | 55.1±0.4 kDa and 55.0±0.2 kDa | 57.1±0.3 kDa and 57.1±0.2 kDa | no measurable precipitation |  |  |  | 
 | O=C(O)c1cccc2c1oc1c(C(=O)O)ccc(Oc3cc(Cl)cc(Cl)c3)c12 [Compound 47] |  |  | no measurable precipitation | shows the most fibrils formed | dramatically slowed in a dose-dependent fashion | markedly slowed in a dose-dependent fashion | 
no measurable binding selectivity | O=C(O)c1cccc2c1oc1c(C(=O)O)cccc12 [Compound 1, dibenzofuran-4,6-dicarboxylic acid, reference compound] |  |  |  |  |  |  | 90%
